From ChEMBL document CHEMBL1201862, “PubChem BioAssay data set” (2004)
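Results reflect a 48-hour exposure of cells in 96-well plates to compound at five concentrations. GI50 is the concentration that inhibits growth by half.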 Calls of active or inactive are those of the source. Cut-off read from the data, not from the text of the source: active = GI50 up to about 1.1 µM and inactive = higher.

Legend:
Experiment in all cases: NCI-60 cell line screen, 48 h
RXF 393 = system: RXF 393
NCI-H226 = system: NCI-H226
SK-OV-3 = system: SK-OV-3
Malme-3M = system: Malme-3M
PC-3 = system: PC-3
NCI/ADR-RES = system: NCI/ADR-RES
NCI-H522 = system: NCI-H522
IGROV-1 = system: IGROV-1
OVCAR-5 = system: OVCAR-5
HOP-92 = system: HOP-92
HCT-15 = system: HCT-15
A498 = system: A498
CAKI-1 = system: CAKI-1
KM12 = system: KM12
DU-145 = system: DU-145
A549 = system: A549
UACC-257 = system: UACC-257
NCI-H460 = system: NCI-H460
LOX IMVI = system: LOX IMVI
SK-MEL-28 = system: SK-MEL-28
M14 = system: M14
SW-620 = system: SW-620
MDA-N = system: MDA-N
T47D = system: T47D
SF-539 = system: SF-539
OVCAR-4 = system: OVCAR-4
NCI-H23 = system: NCI-H23
CCRF-CEM = system: CCRF-CEM
UO-31 = system: UO-31
TK-10 = system: TK-10
MOLT-4 = system: MOLT-4
OVCAR-3 = system: OVCAR-3
SK-MEL-2 = system: SK-MEL-2
SNB-19 = system: SNB-19
EKVX = system: EKVX
Hs-578T = system: Hs-578T
HCT-116 = system: HCT-116
MDA-MB-435 = system: MDA-MB-435
SF-295 = system: SF-295
UACC-62 = system: UACC-62
MDA-MB-231 = system: MDA-MB-231
786-0 = system: 786-0
U-251 = system: U-251
SF-268 = system: SF-268
RPMI-8226 = system: RPMI-8226
ACHN = system: ACHN
OVCAR-8 = system: OVCAR-8
HOP-62 = system: HOP-62
SK-MEL-5 = system: SK-MEL-5
HT-29 = system: HT-29
COLO 205 = system: COLO 205
HCC 2998 = system: HCC 2998
SNB-75 = system: SNB-75
MCF7 = system: MCF7
K562 = system: K562
SN12C = system: SN12C
HL-60 = system: HL-60
BT-549 = system: BT-549
SR = system: SR

Measured: GI50

CN(C)C1C(=O)C(C(N)=O)=C(O)C2(O)C(O)=C3C(=O)c4c(O)cccc4C(C)(O)C3CC12 (stereo not given)
inactive: RXF 393 43.6 µM | NCI-H226 82.6 µM | SK-OV-3 76.6 µM | Malme-3M 67.3 µM | PC-3 > 100 µM | NCI/ADR-RES 76.4 µM | NCI-H522 78 µM | IGROV-1 52.8 µM | OVCAR-5 > 100 µM | HOP-92 > 100 µM | A498 43.8 µM | CAKI-1 38.7 µM | KM12 73.8 µM | DU-145 68.4 µM | A549 60.8 µM | UACC-257 > 100 µM | NCI-H460 52 µM | LOX IMVI 33.7 µM | SK-MEL-28 93.5 µM
50.5 µM: HCT-15

C#CCNC(CSSCC(N)C(=O)O)C(=O)O (stereo not given)
> 100 µM: HCT-15
inactive: RXF 393 > 100 µM | M14 > 100 µM | SW-620 > 100 µM | MDA-N > 100 µM | T47D > 100 µM | NCI-H226 > 100 µM | SF-539 > 100 µM | OVCAR-4 > 100 µM | NCI-H23 > 100 µM | SK-OV-3 > 100 µM | CCRF-CEM > 100 µM | Malme-3M > 100 µM | PC-3 > 100 µM | NCI/ADR-RES > 100 µM | NCI-H522 > 100 µM | UO-31 > 100 µM | TK-10 > 100 µM | MOLT-4 > 100 µM | IGROV-1 > 100 µM | OVCAR-5 > 100 µM | HOP-92 4.73 µM | OVCAR-3 > 100 µM | SK-MEL-2 > 100 µM | SNB-19 > 100 µM | EKVX > 100 µM | Hs-578T > 100 µM | HCT-116 > 100 µM | MDA-MB-435 > 100 µM | SF-295 > 100 µM | A498 > 100 µM | CAKI-1 > 100 µM | KM12 > 100 µM | UACC-62 > 100 µM | MDA-MB-231 > 100 µM | 786-0 > 100 µM | U-251 > 100 µM | DU-145 > 100 µM | A549 > 100 µM | SF-268 > 100 µM | RPMI-8226 > 100 µM | ACHN > 100 µM | OVCAR-8 > 100 µM | UACC-257 > 100 µM | HOP-62 > 100 µM | SK-MEL-5 > 100 µM | HT-29 > 100 µM | COLO 205 > 100 µM | HCC 2998 > 100 µM | SK-MEL-28 > 100 µM | SNB-75 > 100 µM | MCF7 > 100 µM

COc1ccc2c(c1)OCC1=C2Oc2ccccc2C1
inactive: M14 38 µM | SW-620 30.2 µM | MDA-N 25 µM | T47D 36.1 µM | NCI-H226 27 µM | SF-539 27.5 µM | OVCAR-4 31.6 µM | K562 22.1 µM | NCI-H23 53.2 µM | SK-OV-3 85.3 µM | SN12C 39.3 µM | Malme-3M > 100 µM | PC-3 34.8 µM | NCI/ADR-RES 44.4 µM | NCI-H522 22 µM | UO-31 50.4 µM | TK-10 40.2 µM | MOLT-4 20.3 µM | IGROV-1 7.19 µM | OVCAR-5 30.1 µM | OVCAR-3 33.6 µM | SK-MEL-2 26.5 µM | EKVX 30.3 µM | HCT-116 36.6 µM | HL-60 14.8 µM | MDA-MB-435 26.5 µM | SF-295 41.5 µM | A498 > 100 µM | CAKI-1 49.7 µM | BT-549 28 µM | KM12 55.8 µM | UACC-62 69 µM | MDA-MB-231 23.5 µM | 786-0 38 µM | U-251 33.5 µM | DU-145 83.9 µM | A549 48.5 µM | SF-268 81.3 µM | RPMI-8226 23.1 µM | SR 26.9 µM | ACHN 37.4 µM | OVCAR-8 55.6 µM | UACC-257 31.2 µM | LOX IMVI 21.4 µM | HOP-62 55.3 µM | SK-MEL-5 13.9 µM | HT-29 26.7 µM | COLO 205 22.5 µM | HCC 2998 24 µM | SNB-75 3.12 µM
31 µM: HCT-15

N#C/C(N)=C(C#N)/N=C/N
inactive: M14 > 100 µM | SW-620 > 100 µM | MDA-N > 100 µM | T47D > 100 µM | SF-539 > 100 µM | OVCAR-4 > 100 µM | K562 > 100 µM | NCI-H23 > 100 µM | SK-OV-3 > 100 µM | SN12C > 100 µM | CCRF-CEM > 100 µM | Malme-3M > 100 µM | PC-3 > 100 µM | NCI/ADR-RES > 100 µM | UO-31 58.6 µM | TK-10 > 100 µM | MOLT-4 > 100 µM | IGROV-1 > 100 µM | OVCAR-5 > 100 µM | HOP-92 > 100 µM | OVCAR-3 > 100 µM | SK-MEL-2 > 100 µM | EKVX > 100 µM | Hs-578T > 100 µM | HCT-116 > 100 µM | HL-60 > 100 µM | MDA-MB-435 > 100 µM | SF-295 > 100 µM | KM12 > 100 µM | UACC-62 > 100 µM | MDA-MB-231 > 100 µM | 786-0 > 100 µM | U-251 > 100 µM | DU-145 > 100 µM | A549 > 100 µM | SF-268 > 100 µM | RPMI-8226 > 100 µM | SR > 100 µM | ACHN > 100 µM | OVCAR-8 > 100 µM | UACC-257 > 100 µM | NCI-H460 > 100 µM | LOX IMVI > 100 µM | HOP-62 > 100 µM | SK-MEL-5 > 100 µM | HT-29 > 100 µM | COLO 205 > 100 µM | HCC 2998 > 100 µM | SK-MEL-28 > 100 µM | SNB-75 > 100 µM | MCF7 > 100 µM
> 100 µM: HCT-15
